Measurements: ChEMBL document CHEMBL3137381, “MMV Box Onchocerca lienalis screening set”

Tests used:
Type in all cases: functional
[1] = system: Onchocerca lienalis; assay: MMV: Percent motility assay at a compound concentration of 1.25e-5 M. Activity score legend: 3: Active, 2: Moderately active; 1: Inactive, 0: Toxic; settings: at 12.5 µM
[2] = system: Onchocerca lienalis; assay: MMV: Percent motility assay at a compound concentration of 3.1e-6 M. Activity score legend: 3: Active, 2: Moderately active; 1: Inactive, 0: Toxic; settings: at 3.1 µM
[3] = system: Onchocerca lienalis; assay: MMV: Percent motility assay at a compound concentration of 1.9e-7 M. Activity score legend: 3: Active, 2: Moderately active; 1: Inactive, 0: Toxic; settings: at 0.19 µM
[4] = system: Onchocerca lienalis; assay: MMV: Percent motility assay at a compound concentration of 7.8e-7 M. Activity score legend: 3: Active, 2: Moderately active; 1: Inactive, 0: Toxic; settings: at 0.78 µM

Structure (SMILES): COc1ccc(-c2cc3c(nn2)-c2ccccc2C3=O)cc1
- Motility [1]: 100%
- Motility [2]: 100%
- Motility [3]: 100%
- Motility [4]: 100%

Structure (SMILES): COc1ccc(C2c3ccc4ccccc4c3Oc3ncn(CCCN(C)C)c(=N)c32)cc1 (stereo not drawn)
- Motility [1]: 100%
- Motility [2]: 100%
- Motility [3]: 100%
- Motility [4]: 100%

Structure (SMILES): Nc1nc(Nc2cccc(F)c2)nc2ccccc12
- Motility [1]: 100%
- Motility [2]: 100%
- Motility [3]: 100%
- Motility [4]: 100%

Structure (SMILES): COc1ccc(/C=C2/SC(=Nc3ccccc3)NC2=O)cc1
- Motility [1]: 100%
- Motility [2]: 100%
- Motility [3]: 100%
- Motility [4]: 100%

Structure (SMILES): c1ccc(/C2=N/c3ccccc3/N=C(/c3ccccc3)c3ccccc32)cc1
- Motility [1]: 100%
- Motility [2]: 100%
- Motility [3]: 100%
- Motility [4]: 100%

Structure (SMILES): O=C(NC1CCN(Cc2ccccc2)CC1)c1cc2nc(-c3ccc(Cl)s3)cc(C(F)(F)F)n2n1
- Motility [1]: 100%
- Motility [2]: 100%
- Motility [3]: 100%
- Motility [4]: 100%

Structure (SMILES): Cc1sc(NC(=O)c2ccccc2)c(C(c2cccs2)N2CCN(c3ccccc3)CC2)c1C (stereo not drawn)
- Motility [1]: 100%
- Motility [2]: 100%
- Motility [3]: 100%
- Motility [4]: 100%

Structure (SMILES): CCOC(=O)c1c(C)n(-c2ccccc2)c2ccc(OC(=O)c3cc(OC)c(OC)c(OC)c3)cc12
- Motility [1]: 100%
- Motility [2]: 100%
- Motility [3]: 100%
- Motility [4]: 100%

Structure (SMILES): N#Cc1nc(Cc2cccc3ccccc23)oc1N1CCN(C(c2ccccc2)c2ccccc2)CC1
- Motility [1]: 100%
- Motility [2]: 100%
- Motility [3]: 100%
- Motility [4]: 100%

Structure (SMILES): COc1ccc(C2c3ccc4ccccc4c3Oc3ncn(CCCn4ccnc4)c(=N)c32)cc1OC (stereo not drawn)
- Motility [1]: 100%
- Motility [2]: 100%
- Motility [3]: 100%
- Motility [4]: 100%

Structure (SMILES): CN(N=O)C1=C(NC2CCCCC2)C(=O)c2ccccc2C1=O
- Motility [1]: 100%
- Motility [2]: 100%
- Motility [3]: 100%
- Motility [4]: 100%

Structure (SMILES): COc1cccc(Nc2nc(N)c3ccccc3n2)c1.Cl
- Motility [1]: 100%
- Motility [2]: 100%
- Motility [3]: 100%
- Motility [4]: 100%

Structure (SMILES): Cc1ccc(C(=O)c2oc3ccc4c(C)cc(=O)oc4c3c2C)cc1
- Motility [1]: 100%
- Motility [2]: 100%
- Motility [3]: 100%
- Motility [4]: 100%

Structure (SMILES): COc1ccc(CN2CCCC(C(=O)c3ccc(C(F)(F)F)cc3)C2)c(O)c1 (stereo not drawn)
- Motility [1]: 100%
- Motility [2]: 100%
- Motility [3]: 100%
- Motility [4]: 100%

Structure (SMILES): CCCCCCc1cc2cc(-c3csc(C=Cc4ccccc4)n3)c(=O)oc2cc1O
- Motility [1]: 100%
- Motility [2]: 100%
- Motility [3]: 100%
- Motility [4]: 100%

Structure (SMILES): CC(Oc1ccc(NC(=O)c2cccs2)cc1)C(=O)c1ccc(Cl)cc1 (stereo not drawn)
- Motility [1]: 100%
- Motility [2]: 100%
- Motility [3]: 100%
- Motility [4]: 100%

Structure (SMILES): COc1ccc(CNC(=O)c2cc3c(=O)n4ccccc4nc3n(CCc3ccccc3)c2=N)cc1
- Motility [1]: 100%
- Motility [2]: 100%
- Motility [3]: 100%
- Motility [4]: 100%

Structure (SMILES): Brc1ccc(Nc2nc3ccccc3nc2Nc2ccc(Br)cc2)cc1
- Motility [1]: 100%
- Motility [2]: 100%
- Motility [3]: 100%
- Motility [4]: 100%

Structure (SMILES): O=C(NC1CCN(Cc2ccccc2)CC1)c1cc(C(=O)NC2CCN(Cc3ccccc3)CC2)cc(C(=O)NC2CCN(Cc3ccccc3)CC2)c1
- Motility [1]: 100%
- Motility [2]: 100%
- Motility [3]: 100%
- Motility [4]: 100%

Structure (SMILES): COc1ccc(-c2cn3c(C(=O)Nc4ccccc4Cl)c(-c4ccccc4)c4c3n2CCCC4)cc1
- Motility [1]: 66.66%
- Motility [2]: 100%
- Motility [3]: 100%
- Motility [4]: 100%

Structure (SMILES): Cl.Cn1c(=O)n(C)c2cc(CNCCNc3ccnc4cc(Cl)ccc34)ccc21
- Motility [1]: 100%
- Motility [2]: 100%
- Motility [3]: 100%
- Motility [4]: 100%

Structure (SMILES): Cc1cc(Nc2ccc(OCc3ccccc3)cc2)nc2cc(O)ccc12
- Motility [1]: 66.66%
- Motility [2]: 100%
- Motility [3]: 100%
- Motility [4]: 100%

Structure (SMILES): CCN(CC)CCNc1ccnc2cc3ccccc3cc12.O=P(O)(O)O
- Motility [1]: 100%
- Motility [2]: 100%
- Motility [3]: 100%
- Motility [4]: 100%

Structure (SMILES): CCOc1ccc2nc(C)cc(Nc3ccc(N(C)C)cc3)c2c1.Cl
- Motility [1]: 100%
- Motility [2]: 100%
- Motility [3]: 100%
- Motility [4]: 100%

Structure (SMILES): N=c1c2ccccc2nnn1-c1cccc(C(F)(F)F)c1
- Motility [1]: 100%
- Motility [2]: 100%
- Motility [3]: 100%
- Motility [4]: 100%

Structure (SMILES): COc1cc(-c2nc(-c3ccc(Sc4ccccc4)cc3)c(-c3ccccc3)[nH]2)cc(OC)c1O
- Motility [1]: 100%
- Motility [2]: 100%
- Motility [3]: 100%
- Motility [4]: 100%

Structure (SMILES): COc1ccc(C=C2SC(Nc3ccc(F)cc3)=NC2=O)c(OC)c1
- Motility [1]: 100%
- Motility [2]: 100%
- Motility [3]: 100%
- Motility [4]: 100%

Structure (SMILES): O=C(Nc1ccc(-c2nc3cc(NC(=O)c4ccc(Cl)cc4)ccc3[nH]2)cc1)c1ccc(Cl)cc1
- Motility [1]: 100%
- Motility [2]: 100%
- Motility [3]: 100%
- Motility [4]: 100%

Structure (SMILES): OC(Cn1nnc2ccccc21)Cn1c2ccc(Br)cc2c2cc(Br)ccc21 (stereo not drawn)
- Motility [1]: 100%
- Motility [2]: 100%
- Motility [3]: 100%
- Motility [4]: 100%

Structure (SMILES): Cc1ccccc1OCCSc1nc2ccc(NC(=O)c3cccs3)cc2s1
- Motility [1]: 100%
- Motility [2]: 100%
- Motility [3]: 100%
- Motility [4]: 100%

Structure (SMILES): CCOC(=O)c1cnc2ccc(OC)cc2c1Nc1ccc(N2CCN(C)CC2)cc1
- Motility [1]: 100%
- Motility [2]: 100%
- Motility [3]: 100%
- Motility [4]: 100%

Structure (SMILES): COc1ccccc1C(=O)ON=C(N)Cc1cccc2ccccc12
- Motility [1]: 100%
- Motility [2]: 100%
- Motility [3]: 100%
- Motility [4]: 100%

Structure (SMILES): CCOc1cc2c(cc1OCC)C(c1cc(Cl)ccc1O)NCC2 (stereo not drawn)
- Motility [1]: 100%
- Motility [2]: 100%
- Motility [3]: 100%
- Motility [4]: 100%

Structure (SMILES): CN1C=C(c2ccc3ccccc3n2)C(c2c[nH]c3ccccc23)c2ccccc21 (stereo not drawn)
- Motility [1]: 33.33%
- Motility [2]: 100%
- Motility [3]: 100%
- Motility [4]: 100%

Structure (SMILES): Cc1ccc(-c2nc3ccccc3o2)cc1NCc1cc(Cc2ccccc2)ccc1O
- Motility [1]: 100%
- Motility [2]: 100%
- Motility [3]: 100%
- Motility [4]: 100%

Structure (SMILES): COc1ccc(C(O)(CCC(C)C)C(CN2CCOCC2)c2ccc(Cl)cc2)cc1.Cl (stereo not drawn)
- Motility [1]: 100%
- Motility [2]: 100%
- Motility [3]: 100%
- Motility [4]: 100%

Structure (SMILES): O=C(Cc1ccccc1)NC(c1ccc(Cl)cc1)c1c(O)ccc2ccccc12 (stereo not drawn)
- Motility [1]: 100%
- Motility [2]: 100%
- Motility [3]: 100%
- Motility [4]: 100%

Structure (SMILES): c1ccc(CNc2nc(Nc3ccccc3)nc3ccccc23)cc1
- Motility [1]: 0%
- Motility [2]: 100%
- Motility [3]: 100%
- Motility [4]: 100%

Structure (SMILES): Cc1cccc(N2C(=O)C3C(C2=O)C2(c4ccccc4)C(=O)C3(c3ccccc3)C(c3ccc4c(c3)OCO4)=C2c2ccc3c(c2)OCO3)c1 (stereo not drawn)
- Motility [1]: 100%
- Motility [2]: 100%
- Motility [3]: 100%
- Motility [4]: 100%

Structure (SMILES): Cc1ccc(F)cc1NC(=O)c1cc(Cl)ccc1Nc1ccccc1
- Motility [1]: 100%
- Motility [2]: 100%
- Motility [3]: 100%
- Motility [4]: 100%

Structure (SMILES): CCOc1ccc2nc(C)cc(Nc3ccc(Br)cc3)c2c1
- Motility [1]: 100%
- Motility [2]: 100%
- Motility [3]: 100%
- Motility [4]: 100%

Structure (SMILES): COc1cc2c3cc1Oc1c(OC)c(OC)cc4c1C(Cc1ccc(O)c(c1)Oc1ccc(cc1)CC3N(C)CC2)N(C)CC4.Cl (stereo not drawn)
- Motility [1]: 100%
- Motility [2]: 100%
- Motility [3]: 100%
- Motility [4]: 100%

Structure (SMILES): CCCCCCc1cc2cc(-c3nc4ccccc4[nH]3)c(=Nc3ccccc3C)oc2cc1O
- Motility [1]: 100%
- Motility [2]: 100%
- Motility [3]: 100%
- Motility [4]: 100%

Structure (SMILES): CCOc1c(Br)cc(C2C(C(=O)OC)=CN(C)C=C2C(=O)OC)cc1OC
- Motility [1]: 100%
- Motility [2]: 100%
- Motility [3]: 100%
- Motility [4]: 100%

Structure (SMILES): COc1ccc2sc(N(Cc3cccnc3)C(=O)c3ccc(C#N)cc3)nc2c1
- Motility [1]: 100%
- Motility [2]: 100%
- Motility [3]: 100%
- Motility [4]: 100%

Structure (SMILES): CC1CC2=C(CC1CNCCCN(C)C)C(C)(C)CCC2 (stereo not drawn)
- Motility [1]: 100%
- Motility [2]: 100%
- Motility [3]: 100%
- Motility [4]: 100%

Structure (SMILES): CN(C)c1ccc(N=Cc2ccc(N3CCOCC3)cc2)cc1
- Motility [1]: 93.33%
- Motility [2]: 100%
- Motility [3]: 100%
- Motility [4]: 100%

Structure (SMILES): CCOC(=O)c1cnc2ccc(OC)cc2c1NCc1ccccc1
- Motility [1]: 100%
- Motility [2]: 100%
- Motility [3]: 100%
- Motility [4]: 100%

Structure (SMILES): CCOC(=O)C1=CN(C)C=C(C(=O)OCC)C1c1cc(Br)c(OCC)c(OC)c1
- Motility [1]: 100%
- Motility [2]: 100%
- Motility [3]: 100%
- Motility [4]: 100%

Structure (SMILES): CN1CCN(c2nc(Nc3ccc(O)cc3)nc3ccccc23)CC1.Cl
- Motility [1]: 100%
- Motility [2]: 100%
- Motility [3]: 100%
- Motility [4]: 100%

Structure (SMILES): CCOC(=O)c1c[nH]c2c(CC)cccc2c1=O
- Motility [1]: 100%
- Motility [2]: 100%
- Motility [3]: 100%
- Motility [4]: 100%

Structure (SMILES): CCCCc1c(CCC)c(=N)c2ccccc2n1C.I
- Motility [1]: 100%
- Motility [2]: 100%
- Motility [3]: 100%
- Motility [4]: 100%
